Three compounds from patent US10787430B2, “Hemoglobin modifier compounds and uses thereof” (FronThera U.S. Pharmaceuticals LLC, priority 2016, dated 2020) can be followed below.

For orientation: IC50 means the concentration that inhibits the measured activity by half. Low values mean greater potency in that assay, high ones weaker potency in that assay.

Data set [1] concerns the target T1, CYP3A4-M (Homo sapiens, UniProt P08684).
T1 construct: from tissue; host or cells: human liver microsomes
In words: CYP inhibition evaluation in human liver microsomes. Type of data set: in vitro ADME. An excerpt:
(§1) Example A5: CYP Inhibition Evaluation in Human Liver Microsomes
A general note: Liver microsomes are a subcellular fraction often used to study metabolism.

Data set [2] has as its target T2, CYP2D6 (Homo sapiens, UniProt P10635).
T2 construct: from tissue; host or cells: human liver microsomes
The description is as above. Type of data set: in vitro ADME.
Description: as §1

For data set [3], the target named is T3, CYP2C9 (Homo sapiens, UniProt P11712).
T3 construct: from tissue; host or cells: human liver microsomes
T3 sequence (P11712 whole entry): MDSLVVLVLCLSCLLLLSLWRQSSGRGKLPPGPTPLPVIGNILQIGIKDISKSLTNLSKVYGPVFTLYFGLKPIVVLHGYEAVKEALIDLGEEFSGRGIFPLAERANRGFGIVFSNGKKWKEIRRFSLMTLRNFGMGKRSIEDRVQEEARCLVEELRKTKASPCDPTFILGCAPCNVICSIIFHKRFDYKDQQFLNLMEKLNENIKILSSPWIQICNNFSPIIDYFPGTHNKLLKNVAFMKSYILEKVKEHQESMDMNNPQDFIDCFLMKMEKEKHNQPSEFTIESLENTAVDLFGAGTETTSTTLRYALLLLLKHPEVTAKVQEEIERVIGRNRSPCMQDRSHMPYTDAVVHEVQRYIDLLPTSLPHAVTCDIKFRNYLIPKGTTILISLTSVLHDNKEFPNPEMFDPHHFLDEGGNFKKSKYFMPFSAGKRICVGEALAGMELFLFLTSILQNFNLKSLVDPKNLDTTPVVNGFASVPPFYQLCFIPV
The description is as above. Type of data set: in vitro ADME.
Description: as §1

The target in data set [4] is T4, CYP2C19 (Homo sapiens, UniProt P33261).
T4 construct: from tissue; host or cells: human liver microsomes
T4 sequence (P33261 whole entry): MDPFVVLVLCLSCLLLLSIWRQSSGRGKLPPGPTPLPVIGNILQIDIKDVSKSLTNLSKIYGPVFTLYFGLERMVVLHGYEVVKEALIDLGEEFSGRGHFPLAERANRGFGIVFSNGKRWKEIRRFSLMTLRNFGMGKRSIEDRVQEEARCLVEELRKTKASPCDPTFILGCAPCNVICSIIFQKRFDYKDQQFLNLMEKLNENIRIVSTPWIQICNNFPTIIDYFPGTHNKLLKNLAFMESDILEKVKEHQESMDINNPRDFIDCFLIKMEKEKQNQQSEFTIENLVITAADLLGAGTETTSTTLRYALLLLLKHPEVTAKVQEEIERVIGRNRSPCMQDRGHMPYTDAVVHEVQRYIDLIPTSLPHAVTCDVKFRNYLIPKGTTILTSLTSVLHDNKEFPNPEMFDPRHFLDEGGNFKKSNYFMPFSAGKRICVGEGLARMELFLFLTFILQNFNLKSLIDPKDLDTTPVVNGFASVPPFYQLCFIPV
The description is as above. Type of data set: in vitro ADME.
Description: as §1

Data set [5] deals with T5, CYP2C8 (Homo sapiens, UniProt P10632).
T5 construct: from tissue; host or cells: human liver microsomes
T5 sequence (P10632 1-490): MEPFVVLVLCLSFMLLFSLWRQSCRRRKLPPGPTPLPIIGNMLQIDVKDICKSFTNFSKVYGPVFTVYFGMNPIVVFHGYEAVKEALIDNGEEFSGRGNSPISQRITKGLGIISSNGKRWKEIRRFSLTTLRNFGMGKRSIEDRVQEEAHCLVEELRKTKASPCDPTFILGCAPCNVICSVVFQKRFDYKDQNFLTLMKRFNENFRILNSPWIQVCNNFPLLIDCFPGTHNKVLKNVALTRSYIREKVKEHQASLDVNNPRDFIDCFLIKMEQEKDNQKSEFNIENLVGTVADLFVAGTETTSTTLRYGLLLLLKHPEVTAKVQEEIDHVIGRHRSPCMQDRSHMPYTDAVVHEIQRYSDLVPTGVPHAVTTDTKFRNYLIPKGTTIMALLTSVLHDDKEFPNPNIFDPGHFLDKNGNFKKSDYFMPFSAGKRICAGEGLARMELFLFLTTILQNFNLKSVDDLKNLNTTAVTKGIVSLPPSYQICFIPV
Described as above. Type of data set: in vitro ADME.
Description: as §1

Data set [6] addresses T6, CYP1A2 (Homo sapiens, UniProt P05177).
T6 construct: from tissue; host or cells: human liver microsomes
T6 sequence (P05177 1-516): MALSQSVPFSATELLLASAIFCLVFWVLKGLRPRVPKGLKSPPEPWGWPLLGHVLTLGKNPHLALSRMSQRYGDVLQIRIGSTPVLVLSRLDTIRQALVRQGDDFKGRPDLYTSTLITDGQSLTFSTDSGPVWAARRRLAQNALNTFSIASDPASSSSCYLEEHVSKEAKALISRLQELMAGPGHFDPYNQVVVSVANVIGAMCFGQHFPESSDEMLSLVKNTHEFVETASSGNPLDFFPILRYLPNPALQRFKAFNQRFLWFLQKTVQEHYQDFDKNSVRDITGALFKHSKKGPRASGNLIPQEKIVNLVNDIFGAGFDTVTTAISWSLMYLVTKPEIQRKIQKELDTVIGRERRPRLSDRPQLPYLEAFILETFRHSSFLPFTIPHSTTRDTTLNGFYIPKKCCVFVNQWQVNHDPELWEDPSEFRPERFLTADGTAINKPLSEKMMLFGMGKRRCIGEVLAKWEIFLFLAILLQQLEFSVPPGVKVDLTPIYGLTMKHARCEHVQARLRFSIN
Described as above. Type of data set: in vitro ADME.
Description: as §1

Data set [7] in a line: Microsome stability evaluation in rat liver microsomes. Type of data set: in vitro ADME. The conditions noted are these: read-out: Rat microsome, t½. From the text:
(§2) Example A6: Microsome Stability Evaluation in Human and Rat Liver Microsomes

In data set [8] the target is T7, hemoglobin (20% hct blood) (Homo sapiens, UniProt P68871+P69905).
T7 construct: Normal whole blood was collected from adult healthy donors; from tissue; host or cells: normal human whole blood (red blood cells), adult healthy donors
T7 sequence (P69905 2-142 limits assumed): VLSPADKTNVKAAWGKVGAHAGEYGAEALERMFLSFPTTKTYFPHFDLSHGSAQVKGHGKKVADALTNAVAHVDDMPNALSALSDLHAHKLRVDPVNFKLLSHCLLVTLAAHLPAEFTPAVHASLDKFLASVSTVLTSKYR
T7 sequence (P68871 2-147 limits assumed): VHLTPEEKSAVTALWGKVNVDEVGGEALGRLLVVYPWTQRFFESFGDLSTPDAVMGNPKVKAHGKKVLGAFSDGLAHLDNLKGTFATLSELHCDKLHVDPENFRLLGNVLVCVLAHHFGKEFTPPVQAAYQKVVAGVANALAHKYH
In words: Dose-dependent whole blood OEC studies. Type of data set: cell-based. The conditions noted are these: 37° C., 1 hr; for delta p50 0.2 mM: 0.2 mM compound; for delta p50 0.5 mM: 0.5 mM compound. As to the method: Materials: Normal whole blood was collected from adult healthy donors at the Virginia Commonwealth University after informed consent. The use of these human samples is in accordance with regulations of the IRB for Protection of Human Subjects. Compounds (50 mM-100 mM concentration in DMSO) were stored at 15° C. or room temperature until use.
To 2 ml 20% hct blood, 0.2 or 0.5 or 1 mM compound was added and kept shaking at 37° C. for 1 hr. OEC analysis was performed as described above to determine partial pressure of oxygen (pO2) and Hb oxygen saturation values (sO2). A control without compound but containing equivalent amount of DMSO was performed (1%). GBT440 was used as a positive control. Table 2 below lists the delta p50% values.

A short description of data set [9]: Microsome stability evaluation in human liver microsomes. Type of data set: in vitro ADME. Conditions: read-out: Human microsome, t½.
Description: as §2

The subject of data set [10] is sickled HbSS whole blood (RBC sickling). In words: Anti-sickling assay in HbSS sickled blood under hypoxic induction. The class given is cell-based, human. The conditions noted are these: HbSS whole blood 26% Hct, 20 mins hypoxic induction; 0.2 mM compounds (FIG. 2). As to the method:
Materials: • Blood collected after informed consent from sickle cell individuals. • HBS buffer: 10 mM HEPES, 145 mM NaCl, pH 7.4 • Hemox buffer: Buffer provided for the hemox analyzer • Control Compound stock solution in DMSO (50 mM) stored at RT • Control Compound work solution (CWS): 10 μl of DMSO was added by Hamilton to 90 μl of HBS buffer (20 mM Hepes, 145 mM NaCl, pH 7.4) to create a working solution with a final concentration of 5 mM drug and 10% DMSO). • Compound stock solution in DMSO (50 mM) stored at RT • Compound work solution (WS): 10 μl of DMSO was added by Hamilton to 90 μl of HBS buffer (20 mM Hepes, 145 mM NaCl, pH 7.4) to create a working solution with a final concentration of 5 mM drug and 10% DMSO). • DMSO buffer: 10% DMSO (DB), same as WS but without drug. This will be used to maintain DMSO the same for different drug incubations. Test Protocol:
Collect blood from Clinic: Blood were collected after informed consent according to an approved IRB protocol. • Run Advia 120 analysis on SCD blood, to determine Hct. • Dilute blood to 20% Hct with HBS to total volume of 3 ml. • This cell suspension (CS) will be used for all experiments.
Incubation • 1. 200 μl CS • 2. 200 μl CS+20 μl CWS (5 mM diluted 10 times=0.5 mM control final)−(1% DMSO) • 3. 200 μl CS+20 μl WS (5 mM diluted 10 times=0.5 mM control final)−(1% DMSO) • 4. 200 μl CS+8 μl WS (0.2 mM drug final)+DB−(1% DMSO) • Incubate 30 minutes at 37° C.
50 μl into 1 ml HBS+2% BSA buffer. Eight time points (0-20 minutes) at 2% oxygen, 10,000 events each)
The sickling runs provide sets samples that need to be run on the AMNIS image flow and are subsequently analyzed with pixel analysis software.
Drug was provided at 50 mM concentration in DMSO, and stored at room temperature until use. 10 μl of DMSO was added by Hamilton to 90 μl of HBS buffer (20 mM Hepes, 145 mM NaCl, pH 7.4) to create a working solution with a final concentration of 5 mM drug and 10% DMSO). Blood was collected from a sickle cell patient in EDTA anticoagulant. To 200 μl of whole blood, a 20 or 8 μl of working solution was added resulting in a final drug concentration of 0.5 mM or 0.2 mM respectively. The DMSO concentration in both was corrected to 1%. The final hematocrit was measured by ADVIA analysis to be 26%. […] The delta hemox (%) comparing Example 29e with GBT440 is shown in FIG. 1A (0.2 mM) and FIG. 1B (0.5 mM).
Anti-sickling is shown in FIG. 2 with M: maximum percentage of sickled cells during 20 mins of hypoxic induction, T: time needed to reach 50% of M, and Z: baseline percentage of sickled cells prior to hypoxic induction.

T1 sequence (P08684 whole entry): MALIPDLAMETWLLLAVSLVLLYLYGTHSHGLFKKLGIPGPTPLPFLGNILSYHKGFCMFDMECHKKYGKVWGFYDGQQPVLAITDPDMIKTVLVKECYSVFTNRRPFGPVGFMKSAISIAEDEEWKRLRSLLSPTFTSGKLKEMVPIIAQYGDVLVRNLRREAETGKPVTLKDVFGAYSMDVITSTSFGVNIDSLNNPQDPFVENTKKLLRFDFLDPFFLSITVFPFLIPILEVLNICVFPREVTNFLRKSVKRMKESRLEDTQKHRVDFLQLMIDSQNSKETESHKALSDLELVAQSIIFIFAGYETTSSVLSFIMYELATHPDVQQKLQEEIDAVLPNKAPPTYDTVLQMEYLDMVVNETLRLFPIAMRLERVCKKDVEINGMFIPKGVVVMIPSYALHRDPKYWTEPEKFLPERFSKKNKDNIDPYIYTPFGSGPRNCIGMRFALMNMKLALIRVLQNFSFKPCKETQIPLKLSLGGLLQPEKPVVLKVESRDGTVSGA
T2 sequence (P10635 whole entry): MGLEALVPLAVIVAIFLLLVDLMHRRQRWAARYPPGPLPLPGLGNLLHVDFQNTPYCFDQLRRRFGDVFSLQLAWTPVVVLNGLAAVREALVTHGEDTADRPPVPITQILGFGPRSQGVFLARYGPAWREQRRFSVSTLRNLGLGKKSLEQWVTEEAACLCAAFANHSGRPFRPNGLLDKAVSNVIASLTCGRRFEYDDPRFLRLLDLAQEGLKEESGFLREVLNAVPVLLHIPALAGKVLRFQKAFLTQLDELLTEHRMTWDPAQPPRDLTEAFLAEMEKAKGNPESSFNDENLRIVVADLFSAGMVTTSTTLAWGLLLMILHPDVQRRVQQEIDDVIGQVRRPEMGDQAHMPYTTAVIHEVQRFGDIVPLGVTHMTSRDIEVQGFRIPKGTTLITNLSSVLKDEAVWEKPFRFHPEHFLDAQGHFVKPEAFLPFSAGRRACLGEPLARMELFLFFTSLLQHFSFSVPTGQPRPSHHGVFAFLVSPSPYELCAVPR

Regarding `[2H]C([2H])(Oc1cc(F)cc(O)c1C=O)c1cccnc1-c1ccnn1C(C)C` [Example 27b, 4-fluoro-2-hydroxy-6-((2-(1-isopropyl-1H-pyrazol-5-yl)pyridin-3-yl)methoxy-d2)benzaldehyde], the IC50 in data set [1] was 10 µM; in data set [2], > 30 µM; in data set [3] it was 11 µM; in data set [4] it was 6.1 µM; in [5], 3.7 µM; in data set [6], 22 µM. Also, the half-life is 19 min in data set [7] and 24 min in [9]. The “delta p50 0.2 mM” value in data set [8] is reported as −18.8%. Further, in data set [8], the “delta p50 0.5 mM” value was −56.6%. Further, the “Reduction in % sickled cells compared to untreated” value (shortened to “Reduction in % sickled cells”) in [10] was −30.8%.
As to `[2H]C([2H])(Oc1cccc(O)c1C=O)c1cccnc1-n1ccnc1C(C)C` [Example 29e, 2-hydroxy-6-((2-(2-isopropyl-1H-imidazol-1-yl)pyridin-3-yl)methoxy-d2)benzaldehyde], the IC50 in data set [1] is > 50 µM; in data set [2], > 50 µM; in data set [3] it was 36.5 µM; in [4] it was 19.5 µM; in data set [5] it was > 50 µM; in data set [6], > 50 µM. The half-life in data set [7] and in data set [9] was 11 min each time. Moreover, the “delta p50 0.2 mM” value in data set [8] is given as −24.9%. The “delta p50 0.5 mM” value in [8] was −66.1%. Also, the “Reduction in % sickled cells” value in [10] was −27.1%.
For the compound `CC(C)n1nccc1-c1ncccc1COc1cccc(O)c1C=O` [GBT440, reference compound], the IC50 in data set [1] was > 30 µM; in data set [2], > 30 µM; in data set [3], 28.1 µM; in data set [4] it was 7 µM; in data set [5] it was 12.4 µM; in [6], 17.6 µM. The figures for the half-life in data set [7] and in data set [9] were 22 min and 24 min, respectively. Further, the “delta p50 0.2 mM” value in [8] was −14.2%. Moreover, in data set [8], the “delta p50 0.5 mM” value is on record as −35.1%. For the same compound, in data set [10], the “Reduction in % sickled cells” value is given as −22.4%.
